Source: the NIST ThermoML archive (doi:10.1016/j.jct.2009.07.017)

Legend:
[1] = xn = mol fraction of the nth substance listed; conditions: 101.3 kPa, Liquid, Vibrating tube method
[2] = refractive index (Na D-line) (dimensionless); conditions: 298.15 K; 101.33 kPa; Liquid; Standard Abbe refractometry
[3] = 298.15 K; 101.33 kPa; Liquid; Vibrating tube method

CCCCCCCC [octane] + c1ccccc1
mass density [kg/m3], [1]
Conditions	x1 = 0.1024	x1 = 0.2013	x1 = 0.3006	x1 = 0.4234	x1 = 0.5001	x1 = 0.5985	x1 = 0.6982	x1 = 0.7972	x1 = 0.9031	x1 = 1
283.15 K	855.9	828.82	806.11	782.24	769.31	754.84	741.81	730.25	719.42	710.5
298.15 K	840.84	814.43	792.21	768.91	756.54	742.05	729.34	718.02	707.31	698.6

CCOS(=O)(=O)[O-].CC[n+]1cccc(C)c1 [1-ethyl-3-methylpyridinium ethylsulfate]
Conditions	mass density [kg/m3]	refractive index
[2]	–	1.50591
[3]	1219.61	–

c1ccccc1 [benzene] + CCCCCCCC
[1], x2 = 0
Conditions	mass density [kg/m3]
283.15 K	889.51
298.15 K	873.57

CCCCCCCCC [nonane] + c1ccccc1
mass density [kg/m3], [1]
Conditions	x1 = 0.0982	x1 = 0.1996	x1 = 0.304	x1 = 0.4001	x1 = 0.497	x1 = 0.5995	x1 = 0.6989	x1 = 0.7959	x1 = 0.8928	x1 = 1
283.15 K	856.81	829.82	807.64	790.32	775.74	762.31	751.53	741.95	733.72	725.51
298.15 K	841.94	815.82	794.17	777.31	763.05	750.12	739.44	730.03	721.91	713.99

c1ccccc1 [benzene] + CCCCCCCCC
[1], x2 = 0
Conditions	mass density [kg/m3]
283.15 K	889.51
298.15 K	873.57
